In the oligonucleotide strings, read from the 5' end, every base follows the letter of its sugar. An asterisk marks phosphorothioate; unmarked linkages are phosphodiester. Other units and linkages are bracketed, terminal groups are in braces. A string of capitals states the bases alone. e = 2'-O-(2-methoxyethyl) (MOE); [5mC] = 5-methylcytosine; d = 2'-deoxy (DNA)
Assays:
Format in all cases: cell-based, mouse
B16-F10 cells = test: Cell cycle assay in B16-F10 cells; settings: 150 nM, 48 hours, relative to untreated control
Description: BJ cells were routinely cultured in MEM high glucose with 2 mM L-glutamine and Earle's BSS adjusted to contain 1.5 g/L sodium bicarbonate and supplemented with 10% fetal bovine serum, 0.1 mM non-essential amino acids and 1.0 mM sodium pyruvate (all media and supplements from Invitrogen Life Technologies, Carlsbad, Calif.). B16-F10 cells were routinely cultured in DMEM high glucose (Invitrogen Life Technologies, Carlsbad, Calif.) supplemented with 10% fetal bovine serum (Invitrogen Life Technologies, Carlsbad, Calif.). T47D cells were cultured in DMEM High glucose media (Invitrogen Life Technologies, Carlsbad, Calif.) supplemented with 10% fetal bovine serum. […] Cells were plated on collagen-coated 24-well plates (Falcon-Primaria #3047, BD Biosciences, Bedford, Mass.) at approximately 50,000 cells per well and allowed to attach to wells overnight.
In further studies, additional cell lines were treated with oligomeric compounds targeted against miRNAs to assess the effects of each oligomeric compound on cell cycling. BJ, B16, T47D, and HeLa cells were cultured and transfected as described above. […] T47Dp53 cells are T47D cells that have been transfected with and selected for maintenance of a plasmid that expresses a wildtype copy of the p53 gene (for example, pCMV-p53; Clontech, Palo Alto, Calif.), using standard laboratory procedures. BJ cells were treated with 200 nM of each oligomeric compound, and T47D, T47Dp53, HeLa, and B16 cells were treated with 150 nM of each oligomeric compound. The human foreskin fibroblast BJ cell line represents a non-cancer cell line, while HeLa, T47D, T47Dp53 cells and the mouse melanoma cell line B16-F10 represent cancerous cell lines. For comparison, oligomeric compounds ISIS 183891 (SEQ ID NO: 847) and ISIS 285717 ([…]; herein incorporated as SEQ ID NO: 857), both targeting the kinesin-like 1/Eg5 mRNA, involved in cell cycling, were used as positive controls. The random-mer ISIS 29848 was used as a negative control. Additionally, the oligomeric compounds ISIS Number 25690 ([…]; herein incorporated as SEQ ID NO: 858) and ISIS Number 25691 ([…]; herein incorporated as SEQ ID NO: 859), targeted to nucleotides 3051-3070 and 3085-3104, respectively, of the mRNA encoding the Drosha RNase III (GenBank Accession NM_013235.2, incorporated herein as SEQ ID NO: 860) were also tested. ISIS Number 25690 and ISIS Number 25691 are 5-10-52′-MOE gapmer compounds, 20 nucleotides in length, with phosphorothioate internucleoside linkages throughout the oligomeric compound. All cytidine residues are 5-methylcytidines. Transfections were performed using the methods described herein. Cells were prepared for flow cytometry 48-hours after oligonucleotide treatment. Results of these studies are shown in Table 35, where data are expressed as percentage of cells in each phase relative to the untreated control cells in that phase.

IL-12 mRNA = IL-12 mRNA in LPS-activated primary murine macrophages; settings: for IL-12 mRNA expression, % UTC: LPS, average of 3 treatments; for IL-12 mRNA expression, +IFN % UTC: 300 nM oligomeric compound, stimulation with IFN-gamma and LPS, average of 2 experiments
IL-6 mRNA = IL-6 mRNA in LPS-activated primary murine macrophages; settings: for IL-6 expression: IFN-gamma-stimulated and unstimulated cells, 75-600 nM; for IL-6 mRNA expression, % UTC: average of 3 treatments
Description: To investigate the role of miRNAs in the immune response, oligomeric compounds of the present invention targeting miRNAs were tested for their effects upon lipopolysaccharide (LPS)-activated primary murine macrophages. Macrophages participate in the immune response, for example, in the recognition and phagocytosis of microorganisms, including bacteria. Interferon-gamma (IFN-gamma) released by helper T cells is one type of signal required for macrophage activation, and LPS can serve as an additional stimulus. LPS is a component of the gram-negative bacterial cell wall and acts as an agonist for toll-like receptor 4 (TLR4), the primary LPS receptor expressed by macrophages. The proinflammatory cytokines interleukin-12 (IL-12) and interleukin-6 (IL-6) are induced by LPS treatment of macrophages, thus the expression of the mRNAs encoding these cytokines was used to evaluate the response of macrophages to LPS following treatment with oligomeric compounds targeting miRNAs.
Macrophages were isolated as follows. Female C57B1/6 mice (Charles River Laboratories, Wilmington, Mass.) were injected intraperitoneally with 1 ml 3% thioglycollate broth (Sigma-Aldrich, St. Louis, Mo.), and peritoneal macrophage cells were isolated by peritoneal lavage 4 days later. The cells were plated in 96-well plates at 40,000 cells/well for one hour in serum-free RPMI adjusted to contain 10 mM HEPES (Invitrogen Life Technologies, Carlsbad, Calif.), allowed to adhere, then non-adherent cells were washed away and the media was replaced with RPMI containing 10 mM HEPES, 10% FBS and penicillin/streptomycin (“complete” RPMI; Invitrogen Life Technologies, Carlsbad, Calif.).
Oligomeric compounds were introduced into the cells using the non-liposomal transfection reagent FuGENE 6 Transfection Reagent (Roche Diagnostics Corp., Indianapolis, Ind.). Oligomeric compound was mixed with FuGENE 6 in 1 mL of serum-free RPMI to achieve a concentration of 10 μL FuGENE per 1000 nM oligomeric compound. The oligomeric compound/FuGENE complex was allowed to form at room temperature for 20 minutes. This mixture was diluted to the desired concentration of oligomeric compound by the addition of the appropriate volume of complete RPMI. The final ratio of FuGENE 6 to oligomeric compound was 1 μL of FuGENE 6 per 100 nM oligomeric compound. A volume of 100 μL of oligomeric compound/FuGENE/RPMI was added to each well of the 96-well plate in which the macrophages were cultured. Each oligomeric compound treatment was repeated in triplicate.
Following oligomeric compound treatment, cells were stimultated with LPS. Cells were cultured in the presence of the transfection complex for approximately 24 to 28 hours at 37° C. and 5% CO2, after which the medium containing the transfection complex was removed from the cells, and complete RPMI containing 100 ng/mL LPS (Sigma-Aldrich Corp., St. Louis, Mo.) was added to the cells for a period of approximately 24 hours. Control samples included (1) cells receiving no oligomeric compound, stimulated with LPS and (2) cells receiving neither oligomeric compound nor LPS treatment.
In another embodiment, following oligomeric compound treatment, cells were first activated by IFN-gamma, to amplify the response to LPS. Cells were cultured in the presence of the transfection complex for approximately 24 hours at 37° C. and 5% CO2, at which point the medium containing the transfection complex was removed from the cells, and complete RPMI containing 100 ng/mL recombinant mouse IFN-gamma (R&D Systems, Minneapolis, Minn.) was added to the cells. After the 4 hour treatment with INF-gamma, cells were treated with 100 ng/mL LPS for approximately 24 hours. Control samples included (1) cells receiving no oligomeric compound, stimulated with LPS and (2) cells receiving neither oligomeric compound nor LPS treatment. […]

[1] = normalized to LPS-treated cells without oligomeric compound

| Substance | IL-6 expression (IL-6 mRNA) | IL-12 mRNA expression, % UTC (IL-12 mRNA; 75 nM, +IFN) [% UTC] | IL-12 mRNA expression, % UTC (IL-12 mRNA; 75 nM, −IFN) [% UTC] | IL-12 mRNA expression, % UTC (IL-12 mRNA; 150 nM, +IFN) [% UTC] | IL-12 mRNA expression, % UTC (IL-12 mRNA; 150 nM, −IFN) [% UTC] | IL-12 mRNA expression, +IFN % UTC (IL-12 mRNA; [1]) [% UTC] | IL-12 mRNA expression, % UTC (IL-12 mRNA; 300 nM, +IFN) [% UTC] | IL-12 mRNA expression, % UTC (IL-12 mRNA; 300 nM, −IFN) [% UTC] | IL-12 mRNA expression, % UTC (IL-12 mRNA; 600 nM, +IFN) [% UTC] | IL-12 mRNA expression, % UTC (IL-12 mRNA; 600 nM, −IFN) [% UTC] | IL-6 mRNA expression, % UTC (IL-6 mRNA; 75 nM, +IFN) [% UTC] | IL-6 mRNA expression, % UTC (IL-6 mRNA; 75 nM, −IFN) [% UTC] | IL-6 mRNA expression, % UTC (IL-6 mRNA; 150 nM, +IFN) [% UTC] | IL-6 mRNA expression, % UTC (IL-6 mRNA; 150 nM, −IFN) [% UTC] | IL-6 mRNA expression, % UTC (IL-6 mRNA; 300 nM, +IFN) [% UTC] | IL-6 mRNA expression, % UTC (IL-6 mRNA; 300 nM, −IFN) [% UTC] | IL-6 mRNA expression, % UTC (IL-6 mRNA; 600 nM, +IFN) [% UTC] | IL-6 mRNA expression, % UTC (IL-6 mRNA; 600 nM, −IFN) [% UTC] | further results |
| --- | --- | --- | --- | --- | --- | --- | --- | --- | --- | --- | --- | --- | --- | --- | --- | --- | --- | --- | --- |
| 285717 (antisense TCGGTTCTTTCCAAGGCTGA; chemistry not given here) [compound 285717] |  |  |  |  |  |  |  |  |  |  |  |  |  |  |  |  |  |  | % cells in cell cycle phase G1 (B16-F10 cells): 72%; % cells in cell cycle phase G2/M (B16-F10 cells): 220%; % cells in cell cycle phase S (B16-F10 cells): 78%; % cells in cell cycle phase aneuploid (B16-F10 cells): 178%; % cells in cell cycle phase subG1 (B16-F10 cells): 627% |
| CTTCCAGTCGGGGATGTTTACA (anti-miR; chemistry not fully specified) [ISIS 327921, uniform 2′-MOE PS; targets mir-30d] | increased in a dose-dependent manner |  |  |  |  |  |  |  |  |  |  |  |  |  |  |  |  |  | IL-12 expression, % of the control (IL-12 mRNA; IFN-gamma then LPS, 75 nM): 14%; IL-12 expression, % of the untreated control (IL-12 mRNA; IFN-gamma then LPS, all other doses (150, 300, 600 nM)): less than 10%; IL-12 expression, percentage of untreated control (IL-12 mRNA; LPS alone, 75, 150, 300 and 600 nM): ≥ 53%; IL-12 mRNA expression (IL-12 mRNA; LPS-stimulated primary murine macrophages): inhibited IL-12 mRNA expression in a dose-dependent manner |
| 229927 (antisense e[5mC]*e[5mC]*eA*e[5mC]*eA*dT*dT*dG*dA*dG*dT*dT*dT*d[5mC]*dT*eT*eT*eA*eA*eG) [compound 229927] |  | 46 | 67 | 35 | 53 | 145 | 16 | 45 | 8 | 46 | 54 | 57 | 39 | 52 | 40 | 44 | 69 | 104 | IL-12 mRNA expression, −IFN % UTC (IL-12 mRNA; 300 nM oligomeric compound and LPS, no IFN-gamma pretreatment, single experiment, normalized to LPS-treated cells without oligomeric compound): 92 % UTC |
| AACCCACCGACAGCAATGAATGTT (chemistry not given here) [ISIS 327941, uniform 2′-MOE PS; targets mir-181b] | increased in a dose-dependent manner |  |  |  |  |  |  |  |  |  |  |  |  |  |  |  |  |  | IL-12 mRNA expression, % of the untreated control (IL-12 mRNA; IFN-gamma then LPS, all doses): less than 5% |
| 289606 (antisense CCUUCCCUGAAGGUUCCUCC; all 2'-MOE, all C 5-methyl, all phosphorothioate, T or U not given here) [compound 289606] |  | 59 | 89 | 46 | 99 | 129 | 52 | 80 | 66 | 98 | 78 | 77 | 69 | 68 | 70 | 65 | 59 | 77 |  |
